The source of these data is patent US20090275503A1, “DIASTEREOMERIC PEPTIDES FOR MODULATING T CELL IMMUNITY” (Yeda Research and Developent Co., Ltd. at the Weizman …, priority 2005, published 2009).

Non-standard residues stand in square brackets, D forms with d. No end group written: not given here.

One data set deals with TCR. Kind of data set: Fluorescence microscopy: co-localization and fluorescence energy transfer with TCR on activated A2b T cells. It is filed as binding, rat. On the procedure:
Activated A2b T cells (van Eden et al., 1988) (10^5 cells/sample) were incubated in 100 μl of PBS containing Para-formaldehyde 4% for 15 min on ice. The samples were then washed with cold PBS and centrifuged for 7 min at 1100 rpm. PBS containing BSA 1% was then added at room temperature to prevent non-specific binding. After 30 min FITC-labeled antibody against TCR was added at dilution of 1:100 and incubated for 2.5 hr. For co-localization of TCR with the peptide, Rhodamine 2D-CP was added at a final concentration of 1 μM (stock in DMSO) and incubated for 5 min. Sample were then washed once with PBS and loaded on a microscope slide.
The cells were then observed under a fluorescent confocal microscope. […] Fluorescence data was collected from 505-525 nm. […] Fluorescence data was collected from 560 nm and up.
Fluorescence energy transfer between the FITC (donor) and rhodamine (acceptor) was detected as an increase in FITC fluorescence in an area where the rhodamine probe was bleached. […] To verify that the increase in FITC fluorescence is not due to auto fluorescence, bleaching was performed using the 488 nm laser first and only then at 543 nm. […]
To confirm these co-localization results, the inventors performed fluorescence energy transfer experiments between Rhodamine 2D-CP and αTCR-FITC. […] To rule out auto-fluorescence as a source of increased signal in the […] range, two controls were used. […]

The subject of the next data set is rat TCR. Kind of data set: Co-immunoprecipitation of fluorescence-labeled peptides with TCR molecules. The conditions noted are these: Rho-labeled peptides, activated A2b T cells. It is filed as binding. As to the method: Activated A2b T cells (2×10^6) were cultured for 1 hr at 37° C. in the presence of CP or 2D-CP (25 μg/ml), or 2G-CP, and lysed for 15 min on ice in 0.1 ml lysis buffer (Adachi et al., 1996). Insoluble material was removed by centrifugation at 10.000 g for 10 min at 4° C. The lysate was then incubated overnight with Protein A-plus Agarose beads (Santa Cruz Biotechnology Inc., Santa Cruz, Calif., USA) bound to antibodies to the rat TCR or MHC class 1. The antibodies reactive against the rat TCR (clone R73) or HSP60 (clone LKI) were purified from the respective hybridomas at our lab; antibodies to rat CD28, actin and the rat MHC class 1 were purchased from Serotec (Oxford, UK). After an overnight incubation at 4° C., the beads were washed with lysis buffer, boiled for 10 minutes and the protein supernatant run in a 4-20% SDS-PAGE. The presence of co-immunoprecipitated peptide was detected by the Typhoon 9400 variable mode imager.
Next, co-immunoprecipitation experiments were performed. The affinity of the TCR/CP, the TCR/2D-CP and TCR/2G-CP interactions were compared by performing a series of co-precipitation experiments using different concentrations of Rho-labeled CP, 2D-CP and 2G-CP peptides.

The subject of a further data set is LNC from Mt primed rats. Kind of data set: T-cell proliferation of LNC from Mt-immunized rats activated with PPD or Mt176-90 (Part A). The format is cell-based, rat.
Data set [1] has as its system Lewis rats. Description: Adjuvant arthritis (AA) in Lewis rats (Part A). The format is in vivo, rat. As to the method:
To test the effect of CP on T-cell activation in vivo, the experimental T-cell mediated autoimmune disease adjuvant arthritis (AA) was used. AA was induced by injecting 50 μl of Mt suspended in IFA (10 mg/ml) at the base of the tail. At the time of AA induction, each rat also received 100 μg of all-L CP, 2D-CP or 2G CP control peptide (or PBS) dissolved in 50 μl of IFA and mixed with Mt/IFA used to induce AA. The day of AA induction was designated as day 0. Disease severity was assessed by direct observation of all 4 limbs in each animal. A relative score between 0 and 4 was assigned to each limb, based on the degree of joint inflammation, redness and deformity; thus the maximum possible score for an individual animal was 16 (Quintana et al., 2002). The mean AA score (±SEM) is shown for each experimental group. Arthritis was also quantified by measuring hind limb diameter with a caliper. Measurements were taken on the day of the induction of AA and 26 days later (at the peak of AA); the results are presented as the mean±SEM of the difference between the two values for all the animals in each group. The person who scored the disease was blinded to the identity of the groups.
Next, the contribution of the secondary structure and the side-chains to the inhibitory effects of CP on T cell activation In vivo was analyzed, using the experimental autoimmune disease Adjuvant Arthritis (AA). Immunization of Lewis rats with Mt triggers AA, an autoimmune disease driven by Mt-specific T cells that cross-react with self-antigen (Holoshitz et al., 1984; Holoshitz et al., 1983). PPD and Mt176-90 are targeted by the arthritogenic T-cell response (Anderton et al., 1994); indeed immunomodulatory therapies that inhibit the progression of arthritis have been associated with a decreased T cell response to PPD and Mt176-90 and with a diminished delayed type hypersensitivity (DTH) response to PPD (van Eden et al., 1985).

The test system of data set [2] is Lewis rats. Kind of data set: Delayed type hypersensitivity to PPD in AA rats (Part A). It is filed as in vivo, rat. To be noted: 16 days after AA induction, ear thickness 48 hr after PPD. On the procedure: Twenty μl of PPD (0.5 mg/ml in PBS) were injected intradermally into the pinna of the right ear of each rat on day 16 after AA induction; 20 μl of sterile PBS were injected in the left ear as control. The thickness of the ear was measured 48 hr later using a vernier caliper and expressed as the difference between the right and the left ear (Quintana et al., 2005).

A further data set relates to target cells. Description: Cytotoxic effect on the target cells (Part A). The conditions noted are these: incubated with the target cells.

In the case of “GLRILLLKV [2D-CP] (GL[dR]ILLL[dK]V-NH2; also: rhodamine label, position not given here)”, the “Co-localization with the TCR on the T-cell membrane” value in the data set with TCR (rhodamine-labeled peptide 1 μM, αTCR-FITC, activated A2b T cells) is on record as “co-localizes with the TCR”. Besides, the “Fluorescence energy transfer between rhodamine peptide and αTCR-FITC after bleaching at 543 nm” value in the data set on TCR (rhodamine-labeled peptide, point bleach 6 sec) is “significant increase in the fluorescence of the αTCR-FITC”. Besides, the “Co-precipitation with the TCR” value in the data set on rat TCR is reported as “can be co-precipitated with the TCR”. Moreover, the “Inhibition of T-cell proliferation to PPD and to Mt176-90” value with LNC from Mt primed rats (LNC, 72 hr, 3H-thymidine incorporation) was “inhibited T-cell proliferation to PPD and to Mt176-90 in a dose-dependent manner”. In the data set on LNC from Mt primed rats (at lower concentrations, p<0.02 (FIG. 3B)), the “Inhibition of T-cell proliferation compared with all-L CP” value was “somewhat greater”. Also, the “Mean maximum AA score” value in the data set with Lewis rats [1] (100 μg peptide per rat at AA induction, maximum possible score 16) was 6.6±0.7. Also, the “Effect on adjuvant arthritis (clinical score and paw swelling)” value in the data set with Lewis rats [1] (100 μg peptide per rat with Mt at the time of AA induction) is “significantly milder arthritis”. The “Further decrease in the AA score” value in the data set with Lewis rats [1] (dose increased to 900 μg per rat) amounted to 25%. For the same sequence, in the data set on Lewis rats [1] (dose increased to 900 μg per rat, day 26), the “Improvement in paw swelling” value amounted to 50%. Besides, the “Reduction in the DTH response to PPD” value in the data set with Lewis rats [2] was determined as 51%. The Cytotoxic effect entry with target cells is “None of the peptides (all-L CP, 2D-CP or 2G CP) had a cytotoxic effect”.
